Data as given in ChEMBL document CHEMBL4742385 (2019).

Columns and labels:
[1] = molecular target: CDK8/Cyclin C (Homo sapiens) (UniProt P49336+P24863); assay: Inhibition of human CDK8/Cyc C expressed in Sf21 cells at 1 uM measured after 1 hr by fluorescence plate reader relative to control
[2] = molecular target: Cyclin-C/Cyclin-dependent kinase 19 (Homo sapiens) (UniProt Q9BWU1+P24863); assay: Inhibition of humanGST-tagged CDK19/Cyc C expressed in Sf21 cells at 1 uM measured after 1 hr by fluorescence plate reader relative to control
RPMI-8226 = assay: Antiproliferative activity against human RPMI-8226 assessed as inhibition of cell growth at 1 uM after 8 days measured after Celltiter-Glo assay relative to control; format: functional; settings: Homo sapiens, RPMI-8226, 192 h, time 8 day

Row | SMILES | inhibition [1] [%] | inhibition [2] [%] | inhibition at 1 µM (RPMI-8226) [%]
1 | Cn1cc(-c2ccncc2/C=C/C(=O)Nc2ccc(CN3CCN4CCCC4C3)cc2)cn1 (stereo not drawn) | 100 | 74 | 59
2 | Cn1cc(-c2ccncc2/C=C/C(=O)Nc2ccc(Oc3ccncc3)cc2)cn1 | 95 | 96 | 54
3 | O=C(/C=C/c1cnccc1-c1cnn(C2CC2)c1)Nc1ccc2c(c1)CN(CC(F)(F)F)C2 | 103 | 101 | 47
4 | Cn1cc(-c2ccncc2/C=C/C(=O)Nc2ccc3ncsc3c2)cn1 | 94 | 90 | 53
5 | Cn1cc(-c2ccncc2/C=C/C(=O)Nc2ccc(CN3CCC4(CC3)COC4)cc2)cn1 | 97 | 97 | 60
6 | COC1CN(Cc2ccc(NC(=O)/C=C/c3cncc(F)c3-c3cnn(C4CC4)c3)c(F)c2)C1 | 103 | 96 | 63
7 | CN1CCc2ccc(NC(=O)/C=C/c3cnccc3-c3cnn(C)c3)cc2C1 | 100 | 98 | 52
8 | CCn1cc(-c2ccncc2CCC(=O)Nc2ccc(CN3CCOCC3)cc2)cn1 | 90 | 85 | 62
9 | CC(C)(O)Cc1ccc(NC(=O)/C=C/c2cncc(F)c2-c2cnn(C3CC3)c2)c(F)c1 | 102 | 99 | 60
10 | Cn1cc(-c2ccncc2/C=C/C(=O)Nc2ccc(Cn3ccnc3)cc2)cn1 | 102 | 98 | 64
11 | Cc1cc(NC(=O)/C=C/c2cnccc2-c2cnn(C)c2)ccc1CN1CCOCC1 | 96 | 98 | 58
12 | O=C(/C=C/c1cnccc1-c1cnn2ccccc12)Nc1ccc(CN2CCOCC2)cc1 | 98 | 97 | 55
13 | Cn1cc(-c2ccncc2/C=C/C(=O)Nc2ccc(CNCC(F)(F)C(F)(F)F)cc2)cn1 | 101 | 99 | 56
14 | Cn1cc(-c2ccncc2/C=C/C(=O)Nc2ccc(CC(C)(C)O)cc2)cn1 | 99 | 101 | 62
15 | CN(C)CCc1ccc(NC(=O)/C=C/c2cnccc2-c2cnn(C)c2)cc1 | 98 | 98 | 66
16 | CC(=O)N(C)Cc1cc(NC(=O)/C=C/c2cnccc2-c2cnn(C)c2)ccc1C | 95 | 93 | 49
17 | COCc1ccc(NC(=O)/C=C/c2cnccc2-c2cnn(C)c2)cc1 | 100 | 100 | 65
18 | Cn1cnc2ccc(-c3ccncc3/C=C/C(=O)Nc3ccc(CN4CCOCC4)cc3)cc21 | 102 | 102 | 65
19 | Cn1cc(-c2ccncc2/C=C/C(=O)Nc2ccc(CN3CCOCC3)cc2)cn1 | 100 | 98 | 60
20 | O=C(/C=C/c1cnccc1-c1cnn(C2CC2)c1)Nc1ccc2c(c1)CN(C(=O)C(F)(F)F)CC2 | 98 | 98 | 57
21 | Cn1cc(-c2ccncc2/C=C/C(=O)Nc2ccc3c(c2)OCC3)cn1 | 100 | 94 | 55

Row | SMILES | inhibition [1] [%] | inhibition [2] [%] | inhibition at 1 µM (RPMI-8226) [%]
22 | Cn1cc(-c2c(F)cncc2/C=C/C(=O)Nc2ccc3c(c2)CN(CC(F)(F)F)C3)cn1 | 106 | 104 | 56
23 | COc1ncc(-c2ccncc2/C=C/C(=O)Nc2ccc(CN3CCOCC3)cc2)s1 | 99 | 98 | 63
24 | O=C(/C=C/c1cnccc1-c1cnn(CC2CC2)c1)Nc1ccc(CCN2CCOCC2)cc1 | 94 | 97 | 58
25 | COc1ccsc1-c1ccncc1/C=C/C(=O)Nc1ccc(CN2CCOCC2)cc1 | 97 | 100 | 52
26 | O=C(/C=C/c1cnccc1-c1cnn(C2CC2)c1)Nc1ccc2c(c1)CN(CC(F)(F)F)CC2 | 98 | 102 | 63
27 | Cn1cc(-c2ccncc2/C=C/C(=O)Nc2ccc(CCN3CCOCC3)cc2)cn1 | 96 | 101 | 59
28 | O=C(/C=C/c1cnccc1-c1cnn(CC2(F)CC2)c1)Nc1ccc(CN2CCOCC2)cc1 | 99 | 101 | 57
29 | Cn1cc(-c2ccncc2/C=C/C(=O)Nc2ccc3c(c2)OCO3)cn1 | 96 | 94 | 53
30 | Cn1cnc2ccc(-c3c(F)cncc3/C=C/C(=O)Nc3ccc(CN4CC(F)(F)C4)cc3)cc21 | 87 | 101 | 67
31 | Cc1nn(C)cc1-c1ccncc1/C=C/C(=O)Nc1ccc(CCc2nnco2)cc1 | 100 | 98 | 54
32 | COC(C)c1ccc(NC(=O)/C=C/c2cnccc2-c2cnn(C3CC3)c2)cc1 (stereo not drawn) | 102 | 93 | 62
33 | CCN1CCc2cc(NC(=O)/C=C/c3cnccc3-c3cnn(C)c3)ccc2C1 | 96 | 95 | 58
34 | Cn1cc(-c2ccncc2/C=C/C(=O)Nc2cc(F)c(CN3CCOCC3)cc2F)cn1 | 94 | 91 | 66
35 | O=C(/C=C/c1cnccc1-c1ccc2[nH]cnc2c1)Nc1ccc(CN2CCOCC2)cc1 | 99 | 101 | 66
36 | Cc1ncc(-c2ccncc2/C=C/C(=O)Nc2ccc(CN3CCOCC3)cc2)s1 | 95 | 95 | 54
37 | CC(c1ccc(NC(=O)/C=C/c2cnccc2-c2cnn(C)c2)cc1)N1CCOCC1 (stereo not drawn) | 96 | 98 | 57
38 | Cn1cc(-c2ccncc2/C=C/C(=O)Nc2ccc3c(ccn3C)c2)cn1 | 98 | 99 | 55
39 | Cn1cc(-c2ccncc2/C=C/C(=O)Nc2ccc3cc[nH]c3c2)cn1 | 98 | 93 | 54
40 | CC1CN(Cc2ccc(NC(=O)/C=C/c3cnccc3-c3cnn(C)c3)cc2)CCO1 (stereo not drawn) | 99 | 97 | 55
41 | O=C(/C=C/c1cnccc1-c1cnn(C(F)F)c1)Nc1ccc(CN2CCOCC2)cc1 | 98 | 100 | 53
42 | Cn1cc(-c2ccncc2/C=C/C(=O)Nc2ccc(CN3CC4CC3CO4)cc2)cn1 (stereo not drawn) | 100 | 96 | 58

Row | SMILES | inhibition [1] [%] | inhibition [2] [%] | inhibition at 1 µM (RPMI-8226) [%]
43 | Cn1cc(-c2ccncc2/C=C/C(=O)Nc2ccc(CN3CCOCC3)c(O)c2)cn1 | 97 | 99 | 54
44 | COC1CN(Cc2ccc(NC(=O)/C=C/c3cncc(F)c3-c3cnn(C4CC4)c3)cc2)C1 | 101 | 100 | 63
45 | CC(C)(O)Cc1ccc(NC(=O)/C=C/c2cnccc2-c2cnn(C3CC3)c2)cc1 | 100 | 103 | 61
46 | Cn1cc(-c2ccncc2/C=C/C(=O)Nc2ccc(CN3CC(F)(F)OC(F)(F)C3)cc2)cn1 | 97 | 98 | 55
47 | O=C(/C=C/c1cnccc1-c1ccns1)Nc1ccc(CN2CCOCC2)cc1 | 101 | 98 | 54
48 | Cn1cc(-c2ccncc2/C=C/C(=O)Nc2ccc(CC(F)(F)F)cc2)cn1 | 99 | 92 | 60
49 | Cn1cc(-c2ccncc2/C=C/C(=O)Nc2ccc3c(c2)OCCO3)cn1 | 100 | 97 | 59
50 | O=C(/C=C/c1cnccc1-c1cnn(C2CC2)c1)Nc1ccc(C2CC2)cc1 | 95 | 89 | 53
51 | O=C(/C=C/c1cnccc1-c1cnsc1)Nc1ccc(CN2CCOCC2)cc1 | 90 | 94 | 51
52 | Cn1cc(-c2ccncc2/C=C/C(=O)Nc2ccc(CN3CCOCC3)cc2F)cn1 | 99 | 97 | 56
53 | Cc1noc(C)c1-c1ccc(NC(=O)/C=C/c2cnccc2-c2cnn(C3CC3)c2)c(F)c1 | 103 | 98 | 58
54 | Cn1cc(-c2ccncc2/C=C/C(=O)Nc2ccc3c(c2)CCN3)cn1 | 97 | 96 | 58
55 | Cn1cc(-c2ccncc2/C=C/C(=O)Nc2ccc(N3CC(F)(F)C3)cc2)cn1 | 105 | 99 | 50
56 | O=C(/C=C/c1cnccc1-c1ccc2nccn2c1)Nc1ccc(CN2CCOCC2)cc1 | 101 | 100 | 52
57 | CC(C)(F)Cc1ccc(NC(=O)/C=C/c2cncc(F)c2-c2cnn(C3CC3)c2)cc1 | 99 | 101 | 62
58 | COC1CN(Cc2ccc(NC(=O)/C=C/c3cnccc3-c3cnn(C4CC4)c3)cc2)C1 | 101 | 99 | 59
59 | Cn1cc(-c2ccncc2/C=C/C(=O)Nc2ccc3ccncc3c2)cn1 | 94 | 94 | 55
60 | Cn1cc(-c2ccc(NC(=O)/C=C/c3cnccc3-c3cnn(C4CC4)c3)cc2)cn1 | 92 | 97 | 58
61 | Cn1cc(-c2ccncc2/C=C/C(=O)Nc2ccc(CNC3CC3)cc2)cn1 | 95 | 96 | 56
